Measured values: patent publication US12570612B2, “Substituted nitrogen heterocyclic compound and anesthetic effect thereof” (priority 2019, dated 2026)
“Also recorded” adds a separate entry of the source.

Tests used:
H295R cell line [1] = assay: Adrenocortical function in vitro test: secretion of cortisol and corticosterone, Group A compounds; assay type: cell-based; conditions: H295 cells; for EC50: 0.1-10000 nM, HPLC-MS/MS
Sprague-Dawley rats [2] = assay: Pharmacological characteristics at equivalent doses (2ED50), Group A compounds; assay type: in vivo; design: Sedation duration: unit not given here; conditions: 2ED50, tail vein; for Types and incidence of adverse reactions: (animals affected/animals)
Sprague-Dawley rats [3] = assay: animal or person; conditions: for Approximate therapeutic index / Minimal lethal dose: rats
Protocol: (§1) Adult male Sprague-Dawley rats (250-300 g) were selected for the experiment. […] The anesthesia effects of the compounds were assessed in rats using a LORR assay and a period >30 s was considered as an indicator of general anesthesia.

Sprague-Dawley rats [4] = assay: animal or person
Protocol: as §1

H295R cell line [5] = assay: Adrenocortical function in vitro test: secretion of cortisol and corticosterone, Group B compounds; assay type: cell-based; conditions: H295R cells; for EC50: Homo sapiens, NCI-H295R, 0.1-10000 nM, HPLC-MS/MS
[6] = Homo sapiens, read-out: EC50 (Corticosterone)
[7] = Homo sapiens, read-out: EC50 (Cortisol)
[8] = read-out: EC50 (Corticosterone)

Row | Compound | Corticosterone as an indicator to determine the presence of inhibition (H295R cell line [1]) | Cortisol as an indicator to determine the presence of inhibition (H295R cell line [1]) | EC50 (H295R cell line [1]; [6]) [nM] | EC50 (H295R cell line [1]; [7]) [nM] | Onset time (Sprague-Dawley rats [2]) [min] | Righting reflex duration (Sprague-Dawley rats [2]) [min] | Types and incidence of adverse reactions (Sprague-Dawley rats [2]) | ED50 (Sprague-Dawley rats [3]; Rattus norvegicus) [mg/kg] | Approximate therapeutic index (Sprague-Dawley rats [3]) | Minimal lethal dose (Sprague-Dawley rats [3]) [mg/kg] | other results
1 | C#CC1(OC(=O)c2cc(F)nn2[C@H](C)c2ccccc2)COC1 [Compound A53] | 0 | 0 | > 100 | > 100 | 0.53 ± 0.28 | 3.01 ± 1.22 | Red and urine(8/8), Tremor(2/8) | 2 to 6 | >6 | >14 | –
2 | C[C@H](c1ccccc1)n1nc(F)cc1C(=O)OC(C)(C)C [Compound A57] | 0 | 0 | > 100 | > 100 | 0.42 ± 0.16 | 1.48 ± 0.51 | Red and urine(7/7), GeneralTremor and (2/7), Tetany and convulsion(2/7) | 2 to 6 | >7 | >15 | –
3 | CO[C@H]1C[C@@H](OC(=O)c2ccnn2[C@H](C)c2ccccc2)C1 [Compound A25] | 0 | 0 | > 1000 | > 1000 | 0.50 ± 0.12 | 2.6 ± 0.83 | Red urine(8/8), Hindlimb; also recorded: rigidity (2/8), Tremor(1/8) | 0.04 to 0.5 | >21 | >5 | –
4 | C=C=CC1(OC(=O)c2c(Cl)cnn2[C@H](C)c2ccccc2)COC1 [Compound A108] | 0 | 0 | > 100 | > 100 | 0.26 ± 0.20 | 3.29 ± 1.20 | Red urine(8/8), Hindlimb; also recorded: rigidity (7/8), the four; also recorded: limbs Tremor(3/8) | 2 to 6 | >5 | >15 | –
5 | CC#CC(C)(C)OC(=O)c1c(F)cnn1[C@H](C)c1ccccc1 [Compound A83] | 0 | 0 | > 1000 | > 1000 | 0.43 ± 0.32 | 3.21 ± 0.41 | – | 1 to 2 | >10 | >12 | –
6 | CCOC(=O)c1ccnn1[C@H](C)c1ccccc1 [Compound A1] | 0 | 0 | > 1000 | > 1000 | 0.56 ± 0.26 | 2.24 ± 1.29 | – | 1 to 2 | >8 | >16 | –
7 | CCC(CC)OC(=O)c1ccnn1[C@H](C)c1ccccc1 [Compound A21] | 0 | 0 | – | – | 0.51 ± 0.10 | 1.16 ± 0.39 | Red and urine(8/8), Euphoria(3/8), and Four limbs Tremor(2/8), and Hindlimb rigidity (2/8) | – | >16 | >6 | EC50 (H295R cell line [1]; [8]): > 100 nM; EC50 (H295R cell line [1]; read-out: EC50 (Cortisol)): > 100 nM; Sedation duration (Sprague-Dawley rats [2]): 8.65 ± 2.38; ED50 (Sprague-Dawley rats [3]; LORR in rats, tail vein, brackets = 95% confidence limit): D (D indicates that the measured ED50 is in the range of 2.00-6.00 mg/kg (excluding 2.00 mg/kg, including 6.00 mg/kg))
8 | C=C=CC1(OC(=O)c2c(I)nnn2[C@H](C)c2ccccc2)CCCCC1 [Compound B137] | – | – | – | – | – | – | – | – | – | – | ED50 (Sprague-Dawley rats [4]; Rattus norvegicus, LORR in rats, tail vein, brackets = 95% confidence limit): 1 to 2 mg/kg; Approximate therapeutic index (Sprague-Dawley rats [4]; rats): >9; Minimal lethal dose (Sprague-Dawley rats [4]; rats): >12 mg/kg; Corticosterone as an indicator to determine the presence of inhibition (H295R cell line [5]): 0; Cortisol as an indicator to determine the presence of inhibition (H295R cell line [5]): 0; EC50 (H295R cell line [5]; [8]): > 1000 nM; EC50 (H295R cell line [5]; read-out: EC50 (Cortisol)): > 1000 nM
